Biological target: T1, Ephrin type-B receptor 4 (Homo sapiens, UniProt P54760)
T1 sequence (P54760 whole entry): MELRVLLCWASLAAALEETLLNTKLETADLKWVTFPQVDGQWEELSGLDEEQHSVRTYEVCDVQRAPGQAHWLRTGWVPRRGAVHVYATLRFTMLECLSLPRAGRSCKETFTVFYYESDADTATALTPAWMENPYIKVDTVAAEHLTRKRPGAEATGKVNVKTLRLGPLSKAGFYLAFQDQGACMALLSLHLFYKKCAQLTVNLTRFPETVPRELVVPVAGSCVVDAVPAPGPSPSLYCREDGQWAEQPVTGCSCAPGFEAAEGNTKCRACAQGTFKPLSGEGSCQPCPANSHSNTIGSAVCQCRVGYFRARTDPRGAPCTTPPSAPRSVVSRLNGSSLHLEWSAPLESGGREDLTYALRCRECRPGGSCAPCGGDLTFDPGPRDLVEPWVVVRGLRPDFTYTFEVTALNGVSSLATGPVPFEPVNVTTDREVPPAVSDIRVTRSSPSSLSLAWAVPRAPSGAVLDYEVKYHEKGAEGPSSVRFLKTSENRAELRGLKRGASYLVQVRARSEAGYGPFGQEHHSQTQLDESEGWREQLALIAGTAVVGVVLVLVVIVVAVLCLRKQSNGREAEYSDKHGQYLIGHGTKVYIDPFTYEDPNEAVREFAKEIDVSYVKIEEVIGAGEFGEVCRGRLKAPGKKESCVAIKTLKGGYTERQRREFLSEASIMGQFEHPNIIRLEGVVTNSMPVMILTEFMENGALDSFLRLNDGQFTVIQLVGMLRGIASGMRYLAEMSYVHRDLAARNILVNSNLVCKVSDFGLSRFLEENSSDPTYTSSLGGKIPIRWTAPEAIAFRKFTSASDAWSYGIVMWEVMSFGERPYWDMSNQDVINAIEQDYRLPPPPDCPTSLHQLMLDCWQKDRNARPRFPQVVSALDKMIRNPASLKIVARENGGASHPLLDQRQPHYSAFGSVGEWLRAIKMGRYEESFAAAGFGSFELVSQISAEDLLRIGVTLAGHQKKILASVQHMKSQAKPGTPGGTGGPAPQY
Assay: Inhibition of EphB4

SMILES | IC50 [µM]
CS(=O)(=O)c1ccccc1Nc1nccc(Nc2c(Cl)ccc3c2OCO3)n1 | 41
Clc1ccc2c(c1Nc1ccnc(Nc3ccc(N4CCOCC4)cc3)n1)OCO2 | 1
COc1cc(Nc2ncnc(Nc3c(Cl)ccc4c3OCO4)n2)cc(OC)c1OC | 2.96
Cc1ccccc1Nc1nccc(Nc2c(Cl)ccc3c2OCO3)n1 | 14
NS(=O)(=O)c1ccc(Nc2nccc(Nc3c(Cl)ccc4c3OCO4)n2)cc1 | 0.3
COc1ccc(Nc2nccc(Nc3c(Cl)ccc4c3OCO4)n2)cc1 | 1.94
COc1cccc(Nc2nccc(Nc3c(Cl)ccc4c3OCO4)n2)c1 | 0.64
N#Cc1ccc(Nc2nccc(Nc3c(Cl)ccc4c3OCO4)n2)cc1 | 1.25
N#Cc1cccc(Nc2nccc(Nc3c(Cl)ccc4c3OCO4)n2)c1 | 0.55
COc1ccccc1Nc1nccc(Nc2c(Cl)ccc3c2OCO3)n1 | 3.88
Fc1cccc(Nc2nccc(Nc3c(Cl)ccc4c3OCO4)n2)c1 | 1.15
Cc1cccc(Nc2nccc(Nc3c(Cl)ccc4c3OCO4)n2)c1 | 0.46
Fc1ccc(Nc2nccc(Nc3c(Cl)ccc4c3OCO4)n2)cc1 | 2.3

Source: ChEMBL document CHEMBL1145633, “Inhibitors of the tyrosine kinase EphB4. Part 1: Structure-based design and optimization of a series of 2,4-bis-anilinopyrimidines” (Bioorg Med Chem Lett, 2008)
